The results in this text go back to patent publication US20240124483A1, “Methods for the Treatment of Fibrotic Disease” (SHY Therapeutics, LLC, priority 2021, published 2024).

Where two headings read alike, the source gives them in different places.

A short description of data set [1]: Assessment of Plasma Exposure in DBA/2J mice. It counts as in vivo, mouse. The procedure:
(§1) Experimental Design: Compound 9 was suspended in 0.5% Hydroxypropyl Methylcellulose (HPMC)/0.1% Tween® 80 to a final concentration of 10 mg/mL. The dosing solutions were prepared prior to the start of the test. Male DBA/2J mice (Jackson Stock No: 000671) were housed in solid bottom cages with standard chow and water ad libitum. Dosing was initiated when animals were 7-8 weeks old. Mice were dosed at a volume of 10 mL/kg by intraperitoneal (IP) injection at 100 mg/kg or vehicle. […] Blood was collected at 15 min, 30 min, 1 h, 2 h, 4 h, 7 h, 16 h, 24 h by cardiac puncture, mixed gently 8 times and put on ice until centrifuged within 30 minutes of collection. The plasma was transferred to a 96-well plate for analysis of test compound levels.
Preparation of Standard Solutions for Calibration of UPLC: Assay: 2 mg/mL in DMSO Stock solutions of reference standard of Compound 9 was freshly prepared. 15 uL of the 2 mg/mL DMSO stock solution of Compound 9 was spiked into a vial and diluted to a final volume of 1 mL (30 ug/mL). 100 uL of the 30 ug/mL solution was mixed with 900 uL methanol (final conc. 3 ug/mL). A calibration curve was obtained from solutions having concentrations of 0.001, 0.003, 0.01, 0.03, 0.1, 0.5 and 1 ug/mL, which were prepared further dilution of the 3 ug/mL solution with methanol. An internal standard of D3-desacetylDFZ (500 ng/mL in methanol) was used. • UPLC Conditions: • Column: Waters UPLC Acquity BEH C18 Column 2.1*50, 1.7 uM • Mobile phase: A: 0.1% formic acid in water; B: 0.1% formic acid in 100% acetonitrile • Gradient:
• Temperature: 50° C. • Run time: 2 min • Injection volume=2 uL • Instrument: Waters TQ-s • Desolvation Temperature: 500° C. • Desolvation gas flow: 1000 L/hr • Capillary Cone voltage: 0.5 • Reference batch: 21-hydroxy emflaza, Compound 9
Preparation of Samples for UPLC: Protein Precipitation Method Using Millipore Hydrophilic Plate (MSRLN04) to Filter the Precipitated Protein • 1) Plasma calibration curve for positively charged compound: all in the filter plate added • a) IS-410000 in acetonitrile (0.1 ug/mL) 200 uL • b) Calibration curve in methanol: 20 uL • c) Methanol: 20 uL • d) Control mouse plasma: 20 uL • 2) Test plasma • a) IS-410000 in acetonitrile (0.1 ug/mL) 200 uL • b) Calibration curve in methanol: 20 uL • c) Test plasma: 20 uL
Placed sample on automatic shaker for at least 5 min
Centrifuged at 2000 rpm (Eppendorf 5804) for 2 min. 2-2.5 uL supernatant were injected onto LCMS system

A short description of data set [2]: Assessment of Plasma Exposure in DBA/2J mice. It counts as in vivo, mouse. The conditions noted are these: for half-life / AUC(0-t) / Cmax / AUC(0-inf) / Tmax: male, DBA/2J, mouse plasma; for half-life / AUC(0-t) / Cmax / AUC(0-inf): mouse, plasma, po; for AUC(0-inf): read-out: AUCINFobs.
The next data set deals with MAPK p38. Description: MAPK p38 Activation Assay in C2C12 (western blot). In kind it is cell-based, mouse. Set-up: key: Y = yes; N = No. The conditions noted are these: at 10 μM. The procedure: Cell lines: Human tumor-derived pancreatic cancer cell line Panc-1 and mouse muscle myoblast C2C12 were purchased from American Type Culture Collection and grown in complete DMEM-High Glucose, supplemented with penicillin (100 U/mL), streptomycin (100 μg/mL), and 10% heat-inactivated FBS at 37° C. in a humidified incubator with 5% CO2.
Method: Cells were plated at 350000 cells/well density in a 12-well plate, allowed 3 hours to adhere to the plate, then starved in the appropriate medium in the presence of 0.5% FBS overnight. The small molecules to be tested were added to the cells in the final concentration of 10 μM in the presence of 0.3% DMSO for 3 hours incubation at 37° C. For IC50 value determination, serial dilutions of compounds were added to cells under the same conditions. […] Protein concentration was assessed by BCA protein assay (Thermo Scientific). Phosphorylation level of MAPK p38 was determined by western blot.
Western blot protocol: Equal amounts of protein (15-50 μg) were separated by SDS-PAGE and transferred to nitrocellulose membranes (Invitrogen by Thermo Fisher Scientific). […] Membranes were blocked with 10% milk and phosphorylation levels of Smad2/Smad3 were assessed by incubating overnight at 4° C. with the following antibody: Phospho-p38 MAPK (Thr180/Tyr182), from Cell Signaling Technology. […]

The nature of data set [3]: Observation for mortality and signs of pain or distress, DBA/2J mice. In kind it is in vivo. The following applies: male DBA/2J mice, single dose, up to 100 mg/kg. The procedure: as §1
[4] abbreviates: male, DBA/2J, mouse, plasma, ip, 100 mg/kg, Group 5: 100 mg/kg IP, Vehicle 1, mouse plasma.
[5] abbreviates: 25 mg/kg, Group 2: 25 mg/kg PO, Vehicle 1.
The mark [6] stands for this setting: 100 mg/kg, Group 3: 100 mg/kg PO, Vehicle 1.
The mark [7] stands for this setting: 100 mg/kg, Group 4: 100 mg/kg PO, Vehicle 2.

The term AUC(0-t) denotes exposure summed from dosing to a finite time, without extrapolation to infinity. As a reminder, the Cmax is the maximum level reached in the sampled fluid or tissue. The half-life is the time in which the quantity being followed falls by half. A word on the Tmax: it is the time at which the peak concentration occurs. As for `COCCNc1nc(-c2nccn2C)nc2sc(-c3cccc(OC)c3Cl)c(-c3ccccc3)c12` [Compound 9, 6-(2-Chloro-3-methoxyphenyl)-N-(2-methoxyethyl)-2-(1-methyl-1H-imidazol-2-yl)-5-phenylthieno[2,3-d]pyrimidin-4-amine], the “Exposures, intraperitoneal (IP) injection compared to oral dosing” value in data set [1] (Group 5 compared to Group 3, 100 mg/kg) was “higher”. The AUC(0-t) stood at 43000 ng·h/mL in data set [1] (setting [4]), 3880 ng·h/mL in data set [2] (setting [5]), 16700 ng·h/mL in data set [2] (setting [6]) and 17100 ng·h/mL in data set [2] (setting [7]). Besides, the Cmax in data set [1] (setting [4]) is 26000 ng/mL; in data set [2] (setting [5]) it was 703 ng/mL; in data set [2] (setting [6]) it was 1960 ng/mL; in data set [2] (setting [7]), 2090 ng/mL. Moreover, the half-life is 2.96 h in data set [1] (setting [4]); 2.9 h in data set [2] (25 mg/kg, Group 2: 25 mg/kg PO, Vehicle 1 (0.5% HPMC with 0.1% Tween 80)); 2.11 h in data set [2] (setting [6]); 2.3 h in data set [2] (100 mg/kg, Group 4: 100 mg/kg PO, Vehicle 2 (Solubilized Lipid)). The AUC(0-inf) is 43200 ng·h/mL in data set [1] (male, DBA/2J, mouse, plasma, ip, 100 mg/kg, Group 5: 100 mg/kg IP, Vehicle 1, mouse plasma, read-out: AUCINFobs); 3900 ng·h/mL in data set [2] (setting [5]); 16700 ng·h/mL in data set [2] (setting [6]); 17200 ng·h/mL in data set [2] (setting [7]). For the same molecule, the Tmax in data set [1] (male, DBA/2J, Group 5: 100 mg/kg IP, Vehicle 1, mouse plasma) amounted to 0.25 h; in data set [2] (Group 2: 25 mg/kg PO, Vehicle 1), 4 h; in data set [2] (Group 3: 100 mg/kg PO, Vehicle 1), 4 h. Also, in data set [2] (Groups 2 and 3: 25 and 100 mg/kg PO, Vehicle 1), the “Exposures (AUC), dose dependence” value is recorded as “dose proportional”. For the same molecule, in data set [2] (oral dosing (PO), 100 mg/kg), the “Exposures (AUC), Vehicle 1 compared to Vehicle 2” value is given as “similar”. The “Activation of MAPK p38 in C2C12” value in the data set with MAPK p38 was “Y”. In addition, the “findings of overt toxicity” value in data set [3] is recorded as “No findings of overt toxicity were observed”.
As for `COCCNc1nc(-c2cn(C)cn2)nc2sc(-c3cccc(OC)c3Cl)c(-c3ccc(OC)cc3)c12` [Compound 8, 6-(2-Chloro-3-methoxyphenyl)-N-(2-methoxyethyl)-5-(4-methoxyphenyl)-2-(1-methyl-1H-imidazol-4-yl)thieno[2,3-d]pyrimidin-4-amine], in the data set with MAPK p38, the “Activation of MAPK p38 in C2C12” value was “Y”.
